Data: paper PMC11171218, “N-Benzylated 5-Hydroxybenzothiophene-2-carboxamides as Multi-Targeted Clk/Dyrk Inhibitors and Potential Anticancer Agents” (Cancers, 2024)

Key:
Dyrk1A = Dyrk1A (Homo sapiens, UniProt Q13627); assay: Z'-LYTE kinase inhibition assay, Dyrk1A; type: biochemical; settings: for IC50: ATP conc. equivalent to Km; for inhibition at 1 µM: read-out: Dyrk1A % Inh. At 1 µM
Source text: (§1) 3. Experimental procedure for protein kinases and inhibition assays.
(§2) 3.1 The Z ́ -LYTE biochemical assay for screening and IC 50 determination for Clk1, Dyrk1A, Dyrk1B, Clk2 and Clk3 kinases.
(§3) The assay employs a fluorescence-based, coupled-enzyme format and is based on the differential sensitivity of phosphorylated and non-phosphorylated peptides to proteolytic cleavage. The peptide substrate is labeled with two fluorophores-one at each end-that make up a FRET pair. In the primary reaction, the kinase transfers the gamma-phosphate of ATP to a single tyrosine, serine, or threonine residue in a synthetic FRET-peptide. In the secondary reaction, a site-specific protease recognizes and cleaves non-phosphorylated FRET-peptides. Phosphorylation of FRET-peptides suppresses cleavage by the Development Reagent. Cleavage disrupts FRET between the donor (i.e., coumarin) and acceptor (i.e., fluorescein) fluorophores on the FRET-peptide, whereas uncleaved, phosphorylated FRET-peptides maintain FRET. A ratiometric method, which calculates the ratio (the Emission Ratio) of donor emission to acceptor emission after excitation of the donor fluorophore at 400 nm, is used to quantitate reaction progress. Both cleaved and uncleaved FRET-peptides contribute to the fluorescence signals and therefore to the Emission Ratio. The extent of phosphorylation of the FRET-peptide can be calculated from the Emission Ratio. The Emission Ratio will remain low if the FRET-peptide is phosphorylated (i.e., no kinase inhibition) and will be high if the FRET-peptide is non-phosphorylated (i.e., kinase inhibition).
(§4) The IC 50 values were determined for compounds displaying significant % inhibition in the screening step. IC 50 determination was done through testing at a range of concentrations with two […]
(§5) two independent experiments. […]
3.1.2 Dyrk1A kinase assay specific conditions:
The 2x Dyrk1A / Ser/Thr 18 mixture is prepared in 50 mM HEPES pH 7.5, 0.01% BRIJ-35, 10 […]
2 µM Ser/Thr 18 in 50 mM HEPES pH 7.5, 0.01% BRIJ-35, 10 mM MgCl 2, 1 mM EGTA. […]
(§6) Development Reagent A is added. […]
(§7) MgCl2, 1 mM EGTA, 0.02% NaN3. […]

Clk3 = Clk3 (Homo sapiens, UniProt P49761); assay: Z'-LYTE kinase inhibition assay, Clk3; type: biochemical; settings: 1 µM compound; screening by Thermo Fisher Scientific
Source text: as §1, §2, §3, §4, §5, §6
3.1.5 Clk3 kinase assay specific conditions:
The 2X Clk3 / Ser/Thr 18 mixture is prepared in 50 mM Tris pH 8.5, 0.01% BRIJ-35, 10 mM […]
as §7
of Development Reagent A is added.

T24 cells = assay: CCK-8 cell viability, T24; type: cell-based; settings: Homo sapiens, T-24, 72 h; for inhibition at 20 µM: CCK-8, mean ± S.E.M. (n = 3), read-out: T24 % Inh. at μM; for IC50: CCK-8, 50% inhibition of viability
Experimental: (§8) All cells were purchased from Bioresource Collection and Research Center (Hsinchu, Taiwan) and cultured in corresponding media supplemented with 10% fetal bovine serum, 1 × Antibiotic-Antimycotic at 37 °C in a humidified incubator with 5% CO2. […] T24 cells were cultured in McCoy’s 5a media. IEC-6 cells were cultured in DMEM media supplemented with 5% fetal bovine serum, 1 × Antibiotic–Antimycotic, and 0.1 unit/mL insulin.
(§9) Cells were incubated with the Cell Counting Kit-8 (CCK-8) reagent (TargetMol, Boston, MA, USA) at 37 °C for 2 h. The cell viability was determined by spectrophotometer at 450 nm.

U87 cells = assay: CCK-8 cell viability, U87; type: cell-based; settings: Homo sapiens, U-87 MG, 72 h; for inhibition at 20 µM: CCK-8, mean ± S.E.M. (n = 3), read-out: U87 % Inh. at μM
Experimental: as §8, §9

GSG2 (Haspin) = molecular target: T1, GSG2 (Haspin) (Homo sapiens, UniProt Q8TF76); assay: Adapta universal kinase assay, Haspin; type: biochemical; settings: for inhibition at 1 µM: 1 µM compound, screening by Thermo Fisher Scientific; for IC50: ATP concentration equivalent to Km (25 μM ATP)
T1 construct: purchased Thermo Fisher Scientific, Madison, WI, USA (assay run there)
T1 sequence (Q8TF76 1-798): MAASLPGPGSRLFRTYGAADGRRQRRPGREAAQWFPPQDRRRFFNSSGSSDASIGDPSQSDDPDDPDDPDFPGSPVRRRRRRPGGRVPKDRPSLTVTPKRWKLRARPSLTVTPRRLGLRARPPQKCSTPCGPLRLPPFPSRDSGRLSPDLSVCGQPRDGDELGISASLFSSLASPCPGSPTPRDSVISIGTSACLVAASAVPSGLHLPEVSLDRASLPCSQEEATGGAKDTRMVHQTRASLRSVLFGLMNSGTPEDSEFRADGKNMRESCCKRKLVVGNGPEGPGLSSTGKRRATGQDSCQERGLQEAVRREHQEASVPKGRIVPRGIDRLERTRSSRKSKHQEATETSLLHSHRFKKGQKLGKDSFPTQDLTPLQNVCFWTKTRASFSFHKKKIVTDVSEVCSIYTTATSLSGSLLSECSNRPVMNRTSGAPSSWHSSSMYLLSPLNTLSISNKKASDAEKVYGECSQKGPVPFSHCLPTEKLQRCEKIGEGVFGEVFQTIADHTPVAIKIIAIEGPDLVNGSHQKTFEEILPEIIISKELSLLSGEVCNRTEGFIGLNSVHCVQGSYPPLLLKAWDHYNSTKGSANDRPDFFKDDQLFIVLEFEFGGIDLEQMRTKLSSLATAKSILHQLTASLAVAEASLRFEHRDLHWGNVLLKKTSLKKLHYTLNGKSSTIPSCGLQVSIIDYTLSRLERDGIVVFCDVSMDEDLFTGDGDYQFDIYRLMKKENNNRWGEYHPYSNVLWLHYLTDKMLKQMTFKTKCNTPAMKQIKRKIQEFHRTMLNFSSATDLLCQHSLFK
Experimental: 3.2 The Adapta universal kinase assay for screening and IC 50 determination against haspin.
The haspin kinase assay was done at Thermo Fisher Scientific, Madison, WI, USA using a fluorescence-based immunoassay known as ‘The Adapta Universal Kinase Assay’, which detects the ADP produced by kinases utilizing the TR-FRET technology. The final 10 μL kinase reaction consists of 0.25 - 1 ng GSG2 (Haspin) and 100 μM of the substrate (Histone H3 (1-20) peptide) in […]
μM ATP. After an incubation time of 1 h at RT, 5 μL of a detection mix was added.
To determine the half maximal inhibitory concentration (IC 50), the assays were performed in duplicate in the absence or presence of increasing doses of the tested compounds.

MCF-7 cells = assay: CCK-8 cell viability, MCF-7; type: cell-based; settings: Homo sapiens, MCF7, 72 h, CCK-8, mean ± S.E.M. (n = 3), read-out: MCF-7 % Inh. at μM
Experimental: as §8, §9

Clk3, sequence (P49761 whole entry): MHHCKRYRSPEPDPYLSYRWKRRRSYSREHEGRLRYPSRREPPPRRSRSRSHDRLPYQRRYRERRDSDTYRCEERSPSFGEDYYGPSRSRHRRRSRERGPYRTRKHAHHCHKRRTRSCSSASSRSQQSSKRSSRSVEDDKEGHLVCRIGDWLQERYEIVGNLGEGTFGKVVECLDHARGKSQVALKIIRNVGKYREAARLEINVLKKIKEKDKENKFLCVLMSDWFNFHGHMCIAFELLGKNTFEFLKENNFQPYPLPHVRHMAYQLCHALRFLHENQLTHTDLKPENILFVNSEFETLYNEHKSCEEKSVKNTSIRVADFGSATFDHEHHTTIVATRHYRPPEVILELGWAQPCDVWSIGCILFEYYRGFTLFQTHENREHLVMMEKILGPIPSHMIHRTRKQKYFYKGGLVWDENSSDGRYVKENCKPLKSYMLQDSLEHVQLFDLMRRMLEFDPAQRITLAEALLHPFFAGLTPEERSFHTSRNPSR

Row | IC50 (Dyrk1A) [nM] | inhibition at 1 µM (Dyrk1A) [%] | melting point [°C] | inhibition at 1 µM (Clk3) [%] | IC50 (T24 cells) [nM] | inhibition at 1 µM (GSG2 (Haspin)) [%] | IC50 (GSG2 (Haspin)) [nM] | IC50 (U87 cells; CCK-8, 50% inhibition of viability) [nM] | Compound | inhibition at 20 µM (T24 cells) [%] | inhibition at 20 µM (U87 cells) [%] | inhibition at 20 µM (MCF-7 cells) [%]
1 | 751 | 60 | 211.2 to 212.3 | 22 | 14000 | 54 | – | – | O=C(NCc1cccc(Cl)c1)c1cc2cc(O)ccc2s1 [Compound 3, N-(3-Chlorobenzyl)-5-hydroxybenzo[b]thiophene-2-carboxamide] | 68.6 ± 3.95 | 32.2 ± 4.76 | 15.6 ± 3.85
2 | 666 | 60 | 176.7 to 177.7 | 27 | – | 83 | 207 | – | O=C(NCc1cccc(F)c1)c1cc2cc(O)ccc2s1 [Compound 6, N-(3-Fluorobenzyl)-5-hydroxybenzo[b]thiophene-2-carboxamide] | 49.3 ± 6.04 | 21 ± 5.07 | 16.2 ± 2.2
3 | 565 | 64 | 128.5 to 130.7 | 24 | – | 46 | – | – | COc1ccccc1CNC(=O)c1cc2cc(O)ccc2s1 [Compound 11, 5-Hydroxy-N-(2-methoxybenzyl)benzo[b]thiophene-2-carboxamide] | 55.3 ± 3.3 | 18.1 ± 0.81 | 56.4 ± 4.47
4 | 536 | 65 | – | 26 | 6000 | 85 | 167 | 16500 | COc1cccc(CNC(=O)c2cc3cc(O)ccc3s2)c1 [Compound 12, 5-Hydroxy-N-(3-methoxybenzyl)benzo[b]thiophene-2-carboxamide] | 100 | 60.1 ± 6.16 | 93.5 ± 0.17
5 | 495 | 67 | – | 26 | 14900 | 80 | 256 | – | O=C(NCc1cc(F)cc(F)c1)c1cc2cc(O)ccc2s1 [Compound 17, N-(3,5-Difluorobenzyl)-5-hydroxybenzo[b]thiophene-2-carboxamide] | 59.9 ± 2.05 | 47.3 ± 5.65 | 20.9 ± 2.02
